Like-named read-outs stand apart in the source and are kept apart here.
How the values were obtained:
ALK2 = ALK2 (Homo sapiens (Human), UniProt Q04771); assay: ALK2 Cellular Assay (phospho SMAD1 HTRF, BMP-7 stimulated HeLa cells); assay type: cell-based; conditions: read-out: ALK2 Cellular Assay PSMAD
Description: HeLa cells were cultured in MEM media with 10% FBS. […] HeLa cells were plated in 96 well flat bottomed plate at 50,000 cells per well and incubated overnight. Next day, media was removed and 50 μL of fresh complete media was added. 5 μL compound was added to cells (3 μM final concentration at highest) and incubated for 60 min at 37° C. 200 ng/ml BMP-7 was added and incubated for 30 min at 37° C. After incubation, the media was removed, washed 2×PBS, and proceeded with HTRF kit according to Cisbio HTRF kit instructions for measuring the Phospho SMAD1 (S463/S465). Finally, both the donor and acceptor were added into 384 well plates and incubated at room temperature overnight and the HTRF signal was measured via Pherastar the next day.

ALK2 (aa 147-end) = ALK2 (aa 147-end) (Homo sapiens (Human), UniProt Q04771); assay: ALK2 HTRF Assay; assay type: biochemical
Description: The enzymatic assays were conducted in white 384-well polystyrene plates in a final volume of 8 μL. The inhibitors were serially diluted in DMSO and added to the plate wells prior to addition of the other reaction components. The assays were carried out at 25° C. in the assay buffer (50 mM HEPES, pH 7.1, 10% Glycerol, 0.01% Brij50, 10 mM MgCl2, 1 mM EGTA, 5 mM DTT, and 0.01% BSA), containing 50 nM LANCE Ultra ULight™-DNA Topoisomerase 2-alpha peptide (Perkin Elmer TRF0130), and 3 uM, 100 uM or 1 mM ATP (as specified). […] The reaction was read on a PHERAstar FS plate reader (BMG Labtech). IC50 determination was performed by fitting percent control activity versus the log of the inhibitor concentration using the IDBS XLFit and GraphPad Prism 5.0 software.

FGFR2 (P) = FGFR2 (P) (Homo sapiens (Human), UniProt P21802); assay: FGFR Enzymatic Assay, FGFR2 phosphorylated; conditions: phosphorylated enzyme, ATP near or below Km
Description: (§1) The inhibitor potency of the exemplified compounds was determined in an enzyme discontinuous assay that measures peptide phosphorylation using FRET measurements to detect product formation. Inhibitors were serially diluted in DMSO and a volume of 0.2 μL was transferred to the wells of a 384-well plate. For the isoforms of FGFR (−1, −2, −3 wild-type and mutant isoforms, −4) including phosphorylated (P) and un-phosphorylated (UP) proteins, a 5 μL/well volume of enzyme diluted in assay buffer (50 mM HEPES, 10 mM MgCl2, 1 mM EGTA, 0.01% Tween-20, 5 mM DTT, pH 7.5) was added to the plate and pre-incubated with inhibitor for 5 to 15 minutes at ambient temperature. Appropriate controls (enzyme blank and enzyme with no inhibitor) were included on the plate. The reaction was initiated by the addition of a 5 μL/well volume containing both biotinylated [sequence] […] The plate was allowed to equilibrate for −10 minutes at ambient temperature before scanning on a PheraStar plate reader (BMG Labtech) instrument.
(§2) Either GraphPad prism or XLfit was used to analyze the data. The IC50 values were derived by fitting the data to a four parameter logistic equation producing a sigmoidal dose-response curve with a variable Hill coefficient. Prism equation: Y=Bottom+(Top−Bottom)/(1+10^((LogIC50−X)*Hill slope)); XLfit equation: Y=(A+((B−A)/(1+((X/C)^D)))) where X is the logarithm of inhibitor concentration and Y is the response.

FGFR3 (UP) = FGFR3 (UP) (Homo sapiens (Human), UniProt P22607); assay: FGFR Enzymatic Assay, FGFR3 un-phosphorylated
FGFR1 (UP) = FGFR1 (UP) (Homo sapiens (Human), UniProt P11362); assay: FGFR Enzymatic Assay, FGFR1 un-phosphorylated
Description: as §1, §2

[1] = HeLa cells, 200 ng/ml BMP-7, Phospho SMAD1 (S463/S465) HTRF
[2] = read-out: ALK2 3 μM IC50, 3 uM ATP
[3] = read-out: ALK2 100 μM IC50, 100 uM ATP
[4] = read-out: ALK2 1 mM IC50, 1 mM ATP
[5] = read-out: FGFR3 (UP) IC50, un-phosphorylated enzyme, ATP near or below Km
[6] = read-out: FGFR1 (UP) IC50, un-phosphorylated enzyme, ATP near or below Km

Sequence of FGFR2 (P) (P21802 22-821): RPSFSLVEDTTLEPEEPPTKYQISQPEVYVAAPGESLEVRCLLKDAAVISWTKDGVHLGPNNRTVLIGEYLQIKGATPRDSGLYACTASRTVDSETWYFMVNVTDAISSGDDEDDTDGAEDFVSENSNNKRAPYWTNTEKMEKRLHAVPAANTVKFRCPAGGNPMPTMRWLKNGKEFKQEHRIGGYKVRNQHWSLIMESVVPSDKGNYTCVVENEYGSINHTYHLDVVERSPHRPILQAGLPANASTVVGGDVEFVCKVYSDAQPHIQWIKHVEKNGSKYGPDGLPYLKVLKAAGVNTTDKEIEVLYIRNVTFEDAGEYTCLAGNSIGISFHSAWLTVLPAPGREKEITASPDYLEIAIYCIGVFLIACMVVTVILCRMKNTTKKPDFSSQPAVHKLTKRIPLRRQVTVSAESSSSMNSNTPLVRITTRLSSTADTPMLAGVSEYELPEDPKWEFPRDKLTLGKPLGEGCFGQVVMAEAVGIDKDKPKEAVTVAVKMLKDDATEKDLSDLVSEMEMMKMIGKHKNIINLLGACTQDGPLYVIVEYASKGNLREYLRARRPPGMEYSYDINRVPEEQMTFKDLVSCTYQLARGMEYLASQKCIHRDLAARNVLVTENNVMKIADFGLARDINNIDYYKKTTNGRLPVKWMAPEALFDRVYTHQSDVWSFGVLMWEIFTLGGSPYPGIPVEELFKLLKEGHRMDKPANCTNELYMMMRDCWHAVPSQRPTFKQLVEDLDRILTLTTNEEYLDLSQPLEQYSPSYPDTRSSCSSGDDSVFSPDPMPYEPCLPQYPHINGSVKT
Sequence of ALK2 (Q04771 21-509): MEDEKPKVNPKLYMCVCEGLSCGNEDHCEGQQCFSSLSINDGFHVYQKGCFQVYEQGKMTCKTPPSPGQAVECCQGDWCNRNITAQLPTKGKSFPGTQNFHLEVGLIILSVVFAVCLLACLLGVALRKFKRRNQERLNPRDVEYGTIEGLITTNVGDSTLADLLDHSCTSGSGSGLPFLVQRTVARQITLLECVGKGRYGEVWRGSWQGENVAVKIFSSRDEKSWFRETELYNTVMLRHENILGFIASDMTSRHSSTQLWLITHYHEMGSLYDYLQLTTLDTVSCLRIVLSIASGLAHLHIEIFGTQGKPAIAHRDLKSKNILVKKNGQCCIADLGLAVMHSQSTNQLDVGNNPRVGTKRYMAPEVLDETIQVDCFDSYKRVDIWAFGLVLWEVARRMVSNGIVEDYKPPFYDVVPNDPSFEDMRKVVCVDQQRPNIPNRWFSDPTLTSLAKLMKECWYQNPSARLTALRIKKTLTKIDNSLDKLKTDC
Sequence of ALK2 (aa 147-end) (Q04771 147-509): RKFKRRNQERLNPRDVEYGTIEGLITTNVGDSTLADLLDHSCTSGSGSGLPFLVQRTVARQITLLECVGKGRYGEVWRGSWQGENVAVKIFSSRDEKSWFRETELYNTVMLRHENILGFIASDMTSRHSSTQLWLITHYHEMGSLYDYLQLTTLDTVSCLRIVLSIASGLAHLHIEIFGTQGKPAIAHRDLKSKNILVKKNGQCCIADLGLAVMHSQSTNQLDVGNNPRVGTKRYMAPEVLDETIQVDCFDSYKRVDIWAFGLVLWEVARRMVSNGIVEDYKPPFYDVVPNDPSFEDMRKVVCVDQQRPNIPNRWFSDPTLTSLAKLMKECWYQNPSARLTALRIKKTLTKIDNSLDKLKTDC
Sequence of FGFR3 (UP) (P22607 23-806): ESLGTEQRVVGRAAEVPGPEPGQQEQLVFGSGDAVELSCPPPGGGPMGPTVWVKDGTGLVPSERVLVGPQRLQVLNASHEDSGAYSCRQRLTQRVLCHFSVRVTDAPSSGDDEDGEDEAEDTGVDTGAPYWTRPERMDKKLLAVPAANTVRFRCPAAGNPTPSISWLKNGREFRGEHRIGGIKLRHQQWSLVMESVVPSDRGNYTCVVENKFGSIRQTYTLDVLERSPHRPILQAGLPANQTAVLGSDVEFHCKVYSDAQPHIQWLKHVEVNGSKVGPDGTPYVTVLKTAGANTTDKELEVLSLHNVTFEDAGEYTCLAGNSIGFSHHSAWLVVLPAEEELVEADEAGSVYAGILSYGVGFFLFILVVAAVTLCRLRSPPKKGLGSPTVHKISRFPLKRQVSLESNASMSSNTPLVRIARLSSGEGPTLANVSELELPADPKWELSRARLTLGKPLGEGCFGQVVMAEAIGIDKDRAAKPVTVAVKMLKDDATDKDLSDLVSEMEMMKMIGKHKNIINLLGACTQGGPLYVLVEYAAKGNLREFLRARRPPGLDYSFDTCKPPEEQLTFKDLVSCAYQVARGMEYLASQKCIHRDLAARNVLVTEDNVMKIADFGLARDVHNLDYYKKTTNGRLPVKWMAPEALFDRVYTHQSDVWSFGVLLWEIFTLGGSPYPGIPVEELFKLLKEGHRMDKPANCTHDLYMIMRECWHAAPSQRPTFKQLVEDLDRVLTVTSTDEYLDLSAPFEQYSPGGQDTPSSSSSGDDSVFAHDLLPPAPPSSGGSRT
Sequence of FGFR1 (UP) (P11362 22-822): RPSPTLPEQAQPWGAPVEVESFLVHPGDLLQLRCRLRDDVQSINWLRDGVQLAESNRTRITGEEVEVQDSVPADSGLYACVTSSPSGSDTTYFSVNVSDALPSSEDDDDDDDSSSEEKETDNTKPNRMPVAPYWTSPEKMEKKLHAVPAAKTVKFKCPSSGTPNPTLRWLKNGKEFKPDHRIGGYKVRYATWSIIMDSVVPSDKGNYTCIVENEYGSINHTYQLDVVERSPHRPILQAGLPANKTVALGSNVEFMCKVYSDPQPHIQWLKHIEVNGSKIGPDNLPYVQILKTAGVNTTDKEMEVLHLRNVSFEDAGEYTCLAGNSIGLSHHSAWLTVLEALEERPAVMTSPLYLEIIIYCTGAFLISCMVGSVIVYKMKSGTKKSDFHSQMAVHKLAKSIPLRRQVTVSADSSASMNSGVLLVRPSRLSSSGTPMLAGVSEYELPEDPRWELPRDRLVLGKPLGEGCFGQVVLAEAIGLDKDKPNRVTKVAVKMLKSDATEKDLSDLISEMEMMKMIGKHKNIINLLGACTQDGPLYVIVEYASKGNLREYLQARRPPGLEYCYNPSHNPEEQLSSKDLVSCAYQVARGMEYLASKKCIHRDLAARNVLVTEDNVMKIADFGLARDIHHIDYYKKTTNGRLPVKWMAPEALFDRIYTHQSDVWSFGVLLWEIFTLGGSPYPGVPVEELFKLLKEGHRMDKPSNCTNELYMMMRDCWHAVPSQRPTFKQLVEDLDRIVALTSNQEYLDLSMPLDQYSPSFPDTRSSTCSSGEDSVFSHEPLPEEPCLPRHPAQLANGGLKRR

| SMILES | IC50 (ALK2; [1]) [nM] | IC50 (ALK2 (aa 147-end); [2]) [nM] | IC50 (FGFR2 (P); FGFR2 (P) IC50 (nM)) [nM] | IC50 (ALK2 (aa 147-end); ALK2 100 μM IC50, 100 uM ATP) [nM] | IC50 (ALK2 (aa 147-end); ALK2 1 mM IC50, 1 mM ATP) [nM] | IC50 (FGFR2 (P); read-out: FGFR2 (P) IC50) [nM] | IC50 (FGFR3 (UP)) [nM] | also measured |
| --- | --- | --- | --- | --- | --- | --- | --- | --- |
| COC(=O)N1C[C@@H](C)N(c2ncc3[nH]nc(-c4ccc(N5CCN(C)CC5)cc4)c3n2)[C@@H](C)C1 [Example 22, Methyl (3R,5S)-3,5-dimethyl-4-(3-(4-(4-methylpiperazin-1-yl)phenyl)-1H-pyrazolo[4,3-d]pyrimidin-5-yl)piperazine-1-carboxylate] | < 100 | < 100 | – | – | – | – | – | IC50 (ALK2 (aa 147-end); [3]): < 100 nM; IC50 (ALK2 (aa 147-end); [4]): < 100 nM |
| CN1CCN(c2ncc3[nH]nc(-c4cnn(C)c4)c3n2)CC1=O [Example 36, 1-Methyl-4-(3-(1-methyl-1H-pyrazol-4-yl)-1H-pyrazolo[4,3-d]pyrimidin-5-yl)piperazin-2-one] | – | – | 100 to 500 | 500 to 2000 | – | – | – | IC50 (ALK2 (aa 147-end); ALK2 3 μM IC50, 3 uM ATP): 500 to 2000 nM |
| C[C@@H]1CN(c2ccc(-c3n[nH]c4cnc(N5[C@H](C)COC[C@@H]5C)nc34)cn2)CCN1 [Example 2, (3R,5S)-3,5-Dimethyl-4-(3-(6-((R)-3-methylpiperazin-1-yl)pyridin-3-yl)-1H-pyrazolo[4,3-d]pyrimidin-5-yl)morpholine] | 100 to 500 | < 100 | 100 to 500 | 100 to 500 | 500 to 2000 | – | – | IC50 (FGFR3 (UP); [5]): < 100 nM; IC50 (FGFR1 (UP)): 100 to 500 nM |
| COCCn1cc(-c2n[nH]c3cnc(N4C5CCC4C(=O)N(C)C5)nc23)cn1 (centres unmarked) [Example 53, 8-(3-(1-(2-Methoxyethyl)-1H-pyrazol-4-yl)-1H-pyrazolo[4,3-d]pyrimidin-5-yl)-3-methyl-3,8-diazabicyclo[3.2.1]octan-2-one] | – | – | – | – | – | < 100 | – | – |
| CC(C)NC(=O)N1C[C@@H](C)N(c2ncc3[nH]nc(-c4ccc(N5CCN[C@H](C)C5)nc4)c3n2)[C@@H](C)C1 [Example 7, (3R,5S)—N-isopropyl-3,5-dimethyl-4-(3-(6-((R)-3-methylpiperazin-1-yl)pyridin-3-yl)-1H-pyrazolo[4,3-d]pyrimidin-5-yl)piperazine-1-carboxamide] | 100 to 500 | < 100 | 500 to 2000 | 100 to 500 | 100 to 500 | – | 500 to 2000 | IC50 (FGFR1 (UP)): 500 to 2000 nM |
| Cc1cnc2n1CCN(c1ncc3[nH]nc(-c4ccc(N5CCN[C@H](C)C5)nc4)c3n1)C2 [Example 19, (R)-5-(3-Methyl-5,6-dihydroimidazo[1,2-a]pyrazin-7(8H)-yl)-3-(6-(3-methylpiperazin-1-yl)pyridin-3-yl)-1H-pyrazolo[4,3-d]pyrimidine] | 100 to 500 | < 100 | 100 to 500 | – | 100 to 500 | – | 100 to 500 | IC50 (FGFR1 (UP)): 500 to 2000 nM; IC50 (ALK2 (aa 147-end); [3]): < 100 nM |
| CCN1CCN(c2ccc(-c3n[nH]c4cnc(N5[C@H](C)CN(C(=O)OC)C[C@@H]5C)nc34)cc2C)CC1 [Example 25, Methyl (3R,5S)-4-(3-(4-(4-ethylpiperazin-1-yl)-3-methylphenyl)-1H-pyrazolo[4,3-d]pyrimidin-5-yl)-3,5-dimethylpiperazine-1-carboxylate] | 100 to 500 | < 100 | – | – | – | – | – | IC50 (ALK2 (aa 147-end); [3]): < 100 nM |
| CC1C(=O)N(C)CCN1c1ncc2[nH]nc(-c3cnn(C)c3)c2n1 (centres unmarked) [Example 38, 1,3-Dimethyl-4-(3-(1-methyl-1H-pyrazol-4-yl)-1H-pyrazolo[4,3-d]pyrimidin-5-yl)piperazin-2-one] | – | – | – | 500 to 2000 | – | < 100 | – | IC50 (ALK2 (aa 147-end); ALK2 3 μM IC50, 3 uM ATP): 100 to 500 nM |
| COC(=O)N1C[C@@H](C)N(c2ncc3[nH]nc(-c4ccc(N5CCN6C[C@@H](O)C[C@@H]6C5)cc4)c3n2)[C@@H](C)C1 [Example 35, Methyl (3R,5S)-4-(3-(4-((7S,8aR)-7-hydroxyhexahydropyrrolo[1,2-a]pyrazin-2(1H)-yl)phenyl)-1H-pyrazolo[4,3-d]pyrimidin-5-yl)-3,5-dimethylpiperazine-1-carboxylate] | 100 to 500 | < 100 | – | – | 100 to 500 | – | – | – |
| C[C@@H]1CN(c2ccc(-c3n[nH]c4cnc(N5CCc6c(ncn6C)C5)nc34)cn2)CCN1 [Example 18, (R)-5-(1-Methyl-1,4,6,7-tetrahydro-5H-imidazo[4,5-c]pyridin-5-yl)-3-(6-(3-methylpiperazin-1-yl)pyridin-3-yl)-1H-pyrazolo[4,3-d]pyrimidine] | 100 to 500 | < 100 | 100 to 500 | – | 100 to 500 | – | 100 to 500 | IC50 (FGFR1 (UP)): 100 to 500 nM; IC50 (ALK2 (aa 147-end); [3]): < 100 nM |
| C[C@@H]1CN(c2ccc(-c3n[nH]c4cnc(N5[C@@H]6CC[C@H]5CN(c5ccc(C#N)cc5)C6)nc34)cn2)CCN1 [Example 15, 4-((1R,5S)-8-(3-(6-((R)-3-Methylpiperazin-1-yl)pyridin-3-yl)-1H-pyrazolo[4,3-d]pyrimidin-5-yl)-3,8-diazabicyclo[3.2.1]octan-3-yl)benzonitrile] | – | < 100 | – | 100 to 500 | 500 to 2000 | > 2000 | – | IC50 (ALK2): 500 to 2000 nM; IC50 (FGFR3 (UP); [5]): > 2000 nM; IC50 (FGFR1 (UP); [6]): > 2000 nM |
| Cn1cc(-c2n[nH]c3cnc(N4CCN(C5CC5)C(=O)C4)nc23)cn1 [Example 37, 1-Cyclopropyl-4-(3-(1-methyl-1H-pyrazol-4-yl)-1H-pyrazolo[4,3-d]pyrimidin-5-yl)piperazin-2-one] | – | – | 500 to 2000 | – | – | – | 100 to 500 | IC50 (FGFR1 (UP); [6]): > 2000 nM |
| CN1CC2CCC(C1=O)N2c1ncc2[nH]nc(-c3cnn(C4CCC4)c3)c2n1 (single isomer, unassigned) [Example 63, 8-(3-(1-Cyclobutyl-1H-pyrazol-4-yl)-1H-pyrazolo[4,3-d]pyrimidin-5-yl)-3-methyl-3,8-diazabicyclo[3.2.1]octan-2-one] | – | – | 500 to 2000 | – | – | – | – | – |
| CC1c2nccn2CCN1c1ncc2[nH]nc(-c3cnn(C)c3)c2n1 (centres unmarked) [Example 43, 3-(1-Methyl-1H-pyrazol-4-yl)-5-(8-methyl-5,6-dihydroimidazo[1,2-a]pyrazin-7(8H)-yl)-1H-pyrazolo[4,3-d]pyrimidine] | – | – | 100 to 500 | – | – | – | 100 to 500 | IC50 (FGFR1 (UP)): 500 to 2000 nM |
| CN1CC2CCC(C1=O)N2c1ncc2[nH]nc(-c3cnn([C@H]4CC[C@H](O)CC4)c3)c2n1 (stereo partly drawn) [Example 55, 8-(3-(1-((1r,4S)-4-Hydroxycyclohexyl)-1H-pyrazol-4-yl)-1H-pyrazolo[4,3-d]pyrimidin-5-yl)-3-methyl-3,8-diazabicyclo[3.2.1]octan-2-one] | – | – | – | – | – | < 100 | – | – |
| CN1CC2CCC(C1=O)N2c1ncc2[nH]nc(-c3cnn(CCN4CCOCC4)c3)c2n1 (centres unmarked) [Example 58, 3-Methyl-8-(3-(1-(2-morpholinoethyl)-1H-pyrazol-4-yl)-1H-pyrazolo[4,3-d]pyrimidin-5-yl)-3,8-diazabicyclo[3.2.1]octan-2-one] | – | – | – | 500 to 2000 | – | < 100 | – | IC50 (ALK2 (aa 147-end); ALK2 3 μM IC50, 3 uM ATP): 500 to 2000 nM |
| C[C@@H]1CN(c2ccc(-c3n[nH]c4cnc(N5[C@H](C)CN(C(=O)N(C)C)C[C@@H]5C)nc34)cn2)CCN1 [Example 8, (3R,5S)—N,N,3,5-tetramethyl-4-(3-(6-((R)-3-methylpiperazin-1-yl)pyridin-3-yl)-1H-pyrazolo[4,3-d]pyrimidin-5-yl)piperazine-1-carboxamide] | 100 to 500 | < 100 | – | – | – | – | – | IC50 (ALK2 (aa 147-end); [3]): < 100 nM; IC50 (ALK2 (aa 147-end); [4]): < 100 nM |
| COCCN1CCN(c2ncc3[nH]nc(-c4cnn(C)c4)c3n2)C(C)C1=O (centres unmarked) [Example 48, 1-(2-Methoxyethyl)-3-methyl-4-(3-(1-methyl-1H-pyrazol-4-yl)-1H-pyrazolo[4,3-d]pyrimidin-5-yl)piperazin-2-one] | – | – | 500 to 2000 | – | – | – | 100 to 500 | IC50 (FGFR1 (UP); [6]): > 2000 nM |
| CN1CC2CCC(C1=O)N2c1ncc2[nH]nc(-c3cnn(C4CCOCC4)c3)c2n1 (centres unmarked) [Example 54, 3-Methyl-8-(3-(1-(tetrahydro-2H-pyran-4-yl)-1H-pyrazol-4-yl)-1H-pyrazolo[4,3-d]pyrimidin-5-yl)-3,8-diazabicyclo[3.2.1]octan-2-one] | – | – | – | – | – | < 100 | – | – |
| COC(=O)N1C[C@@H](C)N(c2ncc3[nH]nc(-c4ccc(C5CCN(C)C5)cc4)c3n2)[C@@H](C)C1 (stereo partly drawn) [Example 27, Methyl (3R,5S)-3,5-dimethyl-4-(3-(4-(1-methylpyrrolidin-3-yl)phenyl)-1H-pyrazolo[4,3-d]pyrimidin-5-yl)piperazine-1-carboxylate] | 100 to 500 | < 100 | – | – | 100 to 500 | – | – | – |

From patent publication US11111247B2, “Pyrazolopyrimidine compounds and uses thereof” (Incyte Corporation, priority 2018, dated 2021)
